One series concerns the target T1, JAK3 (Homo sapiens, UniProt P52333).
T1 construct: host or cells: Sf9 insect cells (baculovirus)
T1 sequence (P52333 1-1124): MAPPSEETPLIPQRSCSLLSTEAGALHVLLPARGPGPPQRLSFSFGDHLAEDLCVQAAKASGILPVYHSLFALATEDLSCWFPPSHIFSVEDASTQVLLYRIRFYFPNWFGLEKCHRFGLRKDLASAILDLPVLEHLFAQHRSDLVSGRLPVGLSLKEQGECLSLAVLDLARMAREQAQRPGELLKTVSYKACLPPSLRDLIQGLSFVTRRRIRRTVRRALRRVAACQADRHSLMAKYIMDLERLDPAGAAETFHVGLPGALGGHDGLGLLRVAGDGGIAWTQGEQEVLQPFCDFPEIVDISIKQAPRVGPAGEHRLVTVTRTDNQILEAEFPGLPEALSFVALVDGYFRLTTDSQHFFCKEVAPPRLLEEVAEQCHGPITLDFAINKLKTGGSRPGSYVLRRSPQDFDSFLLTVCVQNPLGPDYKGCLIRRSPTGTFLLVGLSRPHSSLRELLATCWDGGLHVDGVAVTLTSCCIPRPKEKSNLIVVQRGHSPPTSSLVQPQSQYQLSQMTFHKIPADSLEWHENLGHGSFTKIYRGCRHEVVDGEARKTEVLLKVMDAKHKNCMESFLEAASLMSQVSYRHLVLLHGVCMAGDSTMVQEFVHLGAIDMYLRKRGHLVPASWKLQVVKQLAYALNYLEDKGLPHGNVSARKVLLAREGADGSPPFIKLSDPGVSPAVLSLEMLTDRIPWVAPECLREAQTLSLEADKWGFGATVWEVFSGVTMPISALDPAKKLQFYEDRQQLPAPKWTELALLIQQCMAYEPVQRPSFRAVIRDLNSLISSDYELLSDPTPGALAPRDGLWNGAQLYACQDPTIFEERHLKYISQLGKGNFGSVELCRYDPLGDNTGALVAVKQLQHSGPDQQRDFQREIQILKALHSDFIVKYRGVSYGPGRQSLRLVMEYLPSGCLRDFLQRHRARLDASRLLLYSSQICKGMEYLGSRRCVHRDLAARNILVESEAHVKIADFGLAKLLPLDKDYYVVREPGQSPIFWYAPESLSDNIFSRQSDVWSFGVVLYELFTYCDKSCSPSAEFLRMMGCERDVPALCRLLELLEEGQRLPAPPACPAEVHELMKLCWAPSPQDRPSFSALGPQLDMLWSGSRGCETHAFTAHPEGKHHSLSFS
Briefly: ADP-Glo kinase inhibition assay, JAK3. The series is classed as biochemical. Particulars: for remaining activity at 1 µM: 1 μM compound; for remaining activity at 1 µM / remaining activity at 10 µM: percentage of maximum activity of the DMSO control, mean n = 2, 10 µM ATP, read-out: Residual activity JAK3; for remaining activity at 10 µM: 10 μM compound; for Inhibition of JAK3 kinase activity: span over the tested concentrations (1 and 10 μM). The method, then:
Kinase enzymatic activities were assayed in 384-well plates using the ADP-Glo^TM assay kit (Promega, Madison, WI, USA) according to the recommendations of the manufacturer. This luminescent ADP detection assay was described by Zegzouti and co-workers and provides a homogeneous and high-throughput screening method to measure kinase activity by quantifying the amount of ADP produced during a kinase reaction. Briefly, the reactions were carried out in a final volume of 6 µL for 30 min at 30 °C in an appropriate kinase buffer (10 mM MgCl2, 1 mM EGTA, 1 mM DTT, 25 mM Tris-HCl pH 7.5, 50 µg/mL heparin), with peptide or protein as substrate in the presence of 10 µM ATP. Peptide substrates were obtained from ProteoGenix (Schiltigheim, France) or Sigma for Histone H1, Poly (L-glutamic acid–L-tyrosine) sodium salt, Casein and MBP. After that, 6 µL of ADP-Glo^TM Kinase Reagent was added to stop the kinase reaction. After an incubation time of 50 min at room temperature (rt), 12 µL of Kinase Detection Reagent was added for one hour at rt. The transmitted signal was measured using the Envision (PerkinElmer, Waltham, MA, USA) microplate luminometer and expressed as Relative Light Units (RLUs). Kinase activities are expressed as percentages of remaining kinase activities detected after treatment with 1 or 10 µM of the tested compounds. The maximum kinase activity was measured in the absence of inhibitor but with an equivalent dose of DMSO (solvent of the tested compounds).
3. Kinase inhibition assays
Kinase enzymatic activities were assayed in 384-well plates using the ADP-GloTM assay kit (Promega, Madison, WI) according to the recommendations of the manufacturer. This luminescent ADP detection assay was described by Zegzouti and co-workers and provides a homogeneous and high-throughput screening method to measure kinase activity by quantifying the amount of ADP produced during a kinase reaction. Briefly, the reactions were carried out in a final volume of 6 µl for 30 min at 30°C in appropriate kinase buffer (10 mM MgCl2, 1 mM EGTA, 1 mM DTT, 25 mM Tris-HCl pH 7.5, 50 µg/mL heparin), with peptide or protein as substrate in the presence of 10 µM ATP. Peptide substrates were obtained from ProteoGenix (Schiltigheim, France) or Sigma for Histone H1, Poly (L-glutamic acid – L-tyrosine) sodium salt, Casein and MBP. After that, 6 µL of ADP-GloTM Kinase Reagent was added to stop the kinase reaction. After an incubation time of 50 min at room temperature (rt), 12 µL of Kinase Detection Reagent was added for 1 h at rt. The transmitted signal was measured using the Envision (PerkinElmer, Waltham, MA) microplate luminometer and expressed in Relative Light Unit (RLU). Kinase activities are expressed in percentages of remaining kinase activities detected after treatment with 1 or 10 µM of the tested compounds. The maximal kinase activity is measured in the absence of inhibitor but with an equivalent dose of DMSO (solvent of the tested compounds).
Table. Human protein kinases tested in the panel: CDK9, HASPIN, PIM1, GSK3b, CK1ε, JAK3, CLK1 […]
Protein Kinase Enzyme Description Substrate1
(Family) (Working concentration)
CDK9/CyclinT Human, recombinant, expressed by Peptide:
(CMGC) baculovirus in Sf9 insect cells […]
CLK1 Human, recombinant, expressed by Peptide: […]
(CMGC) baculovirus in Sf9 insect cells (57.3µM)
DYRK1A Human, recombinant, expressed by Peptide: […]
(CMGC) baculovirus in Sf9 insect cells (10.7µM)
PIM1 Human proto-oncogene, recombinant, Peptide: […]
(CAMK) expressed in bacteria (630 µM)
GSK3 Human, recombinant, expressed by Peptide:
(CMGC) baculovirus in Sf9 insect cells […]pEDEEE 3
HASPIN Human, kinase domain, amino acids 470 to Histone H3 peptide (1-21):
(Other) 798, recombinant, expressed in bacteria […] (8µM)
CK1ε Human, recombinant, expressed by Peptide: […]pAYSITA 2
(CK1) baculovirus in Sf9 insect cells (170µM)
JAK3 Human, recombinant, expressed by Peptide: […]
(TK) baculovirus in Sf9 insect cells (94µM) […]

The values that follow come from PMC11597202, “Novel Thiazole-Fused [4,5-g] or [5,4-g]Quinazolin-8-ones and Their Quinazoline Analogues: Synthesis and Biological Evaluation” (Pharmaceuticals, 2024).

The structures appear in SMILES notation.

As for `COC(=N)c1nc2cc3c(=O)n(Cc4ccccc4)cnc3cc2s1` [Compound 6a, Methyl 7-benzyl-8-oxo-7,8-dihydrothiazolo[4,5-g]quinazoline-2-carbimidate], the melting point is 213 to 214 °C. For the same compound, at JAK3, the remaining activity at 1 µM is 55% and the remaining activity at 10 µM is 36%.

Compound `COC(=N)c1nc2cc3ncnc(Nc4ccc(OC)cc4F)c3cc2s1` [Compound 15b, Methyl 8-[(2-fluoro-4-methoxyphenyl)amino]thiazolo[5,4-g]quinazoline-2-carbimidate] showed a melting point of 239 to 240 °C. Further, on JAK3, the remaining activity at 1 µM came to 68%, the remaining activity at 10 µM was found to be 60% and the “Inhibition of JAK3 kinase activity” value is on record as “around 38%”.

`COC(=N)c1nc2c(ccc3c(=O)n(Cc4ccccc4)cnc32)s1` [Compound 6c, Methyl 7-benzyl-6-oxo-6,7-dihydrothiazolo[5,4-h]quinazoline-2-carbimidate] yielded a melting point of 213 to 214 °C. Moreover, on JAK3, the remaining activity at 1 µM stood at 59% and the remaining activity at 10 µM was found to be 44%.

In turn, `COC(=N)c1nc2cc3ncn(Cc4ccccc4)c(=O)c3cc2s1` [Compound 6b, Methyl 7-benzyl-8-oxo-7,8-dihydrothiazolo[5,4-g]quinazoline-2-carbimidate] yielded a melting point of 244 to 245 °C. Moreover, on JAK3, the remaining activity at 1 µM is 92% and the remaining activity at 10 µM turned out to be 73%.

`COC(=N)c1nc2cc3c(Nc4ccc(OC)cc4F)ncnc3cc2s1` [Compound 15a, Methyl 8-[(2-fluoro-4-methoxyphenyl)amino]thiazolo[4,5-g]quinazoline-2-carbimidate] displayed a melting point of 246 to 247 °C. At JAK3, the remaining activity at 1 µM came out at 64%, the remaining activity at 10 µM was determined as 58% and the “Inhibition of JAK3 kinase activity” value is “around 38%”.

As to `COC(=N)c1nc2ccc3c(=O)n(Cc4ccccc4)cnc3c2s1` [Compound 6d, Methyl 7-benzyl-6-oxo-6,7-dihydrothiazolo[4,5-h]quinazoline-2-carbimidate], the melting point lay within 205 to 206 °C. At JAK3, the remaining activity at 1 µM turned out to be 80% and the remaining activity at 10 µM came to 92%.

With `COC(=N)c1nc2ccc3ncnc(Nc4ccc(OC)cc4F)c3c2s1` [Compound II, methyl 9-[(2-fluoro-4-methoxyphenyl)amino]thiazolo[5,4-f]quinazoline-2-carbimidate, reference compound], on JAK3, the remaining activity at 1 µM amounted to 69% and the remaining activity at 10 µM is 54%.

In the case of `COC(=N)c1nc2ccc3ncn(Cc4ccccc4)c(=O)c3c2s1` [Compound I, methyl 8-benzyl-9-oxo-8,9-dihydrothiazolo[5,4-f]quinazoline-2-carbimidate, reference compound], at JAK3, the remaining activity at 1 µM was 48% and the remaining activity at 10 µM was 52%.
